What was measured:
miR126 = miR126 expression in CML CD34+CD38+ committed and CD34+CD38- primitive progenitors by q-RT-PCR; format: cell-based, human; settings: 500 nM
Description: CML CD34+CD38+ committed and CD34+CD38− primitive progenitors were cultured with CpG-scramble RNA (500 nM) or CpG-miR126 inhibitor (500 nM) for 36 hours and then miR126 and RNU44 (control) expression in these cells were analyzed by q-RT-PCR. The miR126 expression levels were normalized to RNU44 and calculated by using the comparative 2^−ΔΔCt method.
CML CD34+, CD34+CD38+ committed and CD34+CD38− primitive progenitors were cultured with CpG-scramble RNA (500 nM), CpG-anti-miR126 inhibitor (500 nM), CpG-scramble RNA (500 nM)+Nilotinib (NIL, 5 uM), and CpG-anti-miR126 inhibitor (500 nM)+NIL (5 uM) for 72 hours and then cell cycling and apoptosis were analyzed by EDU/DAPi and Annexin V/DAPi staining.

miR-126 = miR-126 expression in K562 and MV4-11 cells with miR-126 inhibitors or mimics; format: cell-based; settings: 500 nM, 24 hours
Description: FIGS. 26A-26E. Effective knockdown of miR-126 with miR-126 inhibitors conjugated with CpG, GpC and PS, and effective over-expression with miR-126 mimics in K562 and MV4-11 cells. K562 and MV4-11 cells were treated with miR-126 inhibitors conjugated with CpG, GpC, PS (FIGS. 26A-26B) or miR-126 mimics (615, 616 and 617) (FIGS. 26C-26D) (500 nM) for 24 hours, and miR-126 expression was measured in these cells. […] FIG. 26E) Tabulation of sequence set forth herein.
Effective knockdown of miR-126 with miR-126 inhibitors conjugated with CpG, GpC and PS, and effective over-expression with miR-126 mimics in K562 and MV4-11 cells. K562 and MV4-11 cells were treated with miR-126 inhibitors conjugated with CpG, GpC, PS (FIGS. 26A-26B) or miR-126 mimics (615, 616 and 617) (FIGS. 26C-26D) (500 nM) for 24 hours, and miR-126 expression was measured in these cells.

[1] = tested on: CML cells in SCLtTA/BCR-ABL mice; assay: In vivo treatment of SCLtTA/BCR-ABL mice; design: species or system mouse; settings: 3 weeks, compared with NIL+SCR
Description: SCLtTA/BCR-ABL mice were treated with CpG-miR-126 inhibitor (5 mg/kg, every other day, iv injection), SCR (5 mg/kg, every other day, iv injection), NIL (50 mg/kg, daily by garage)+SCR, NIL+miR-126 inhibitor for 3 weeks and then the remaining CML cells in the PB (FIG. 13A), BM (FIG. 13C) and spleen (FIG. 13D) were analyzed.
FIGS. 14A-D are scatter plots showing reduced CML LSK and LSC observed in the bone marrow (BM) (FIGS. 14A, 14C) and spleen (FIGS. 14B, 14D) of the mice treated with NIL+miR126 inhibitor compared with the mice treated with NIL+SCR. SCLtTA/BCR-ABL mice were treated with CpG-miR-126 inhibitor, SCR, NIL+SCR, NIL+miR-126 inhibitor for 3 weeks and then the remaining CML LSK primitive cells and LSC in the BM and spleen were analyzed.
SCLtTA/BCR-ABL mice were treated with CpG-miR-126 inhibitor (5 mg/kg, every other day, iv injection), SCR (5 mg/kg, every other day, iv injection), NIL (50 mg/kg, daily by garage)+SCR, NIL+miR-126 inhibitor for 3 weeks and then the remaining CML cells in the PB, BM and spleen were analyzed. […] The effect of CpG-anti-miR-126 on growth of primary AML LSC and therapeutic response in vivo is still ongoing. These observations indicate that blocking of miR-126 by a myeloid cell-specific CpG-anti-miR-126 ODN inhibitor, among other compounds of the present disclosure, is very effective, and therefore represents a novel therapeutic method targeting miRNA in leukemia and other types of cancer disclosed herein.

[2] = 5 mg/kg every other day iv + NIL 50 mg/kg daily

## 5′ G*G*T GCA TCG ATG CAGG*G*G* G*G (SEQ ID NO: 1) xxxxx mCmGmC mAmUmU mAmUmU mAmCmU mCmAmC mGmGmU mAmCmG mA (SEQ ID NO: 17) 3′ [CpG-anti-miR126]
miR126
  reduction of miR126 expression: More than 90%
miR-126
  miR-126 expression (knockdown by inhibitors): very effective in reducing miR-126
[1]; [2]
  CML white blood cells in the PB: Reduced CML white blood cells
  spleen weight: Reduced spleen weight
[1]; with NIL
  CML LSK in the BM and spleen: Reduced
  CML LTHSC in the BM and spleen: Reduced
  CML cells in the BM and spleen: Reduced

Source: patent US11591596B2, “Compounds and compositions including phosphorothioated oligodeoxynucleotide, and methods of use thereof” (City of Hope, priority 2015, dated 2023)
